According to a melting point compilation (Tetko et al.; mined from patent text by program, amines drawn as free bases though some values may be those of a salt):

Compound | melting point [°C]
CC(C)c1cc(Oc2ccccc2)cc(C2CCCCC2)c1N | 108 to 110
CC(SC1COC(c2ccc(C(=O)Nc3ccc(Cl)cc3)cc2)OC1)C(O)(Cn1cncn1)c1ccc(F)cc1F (centres undefined) | 210
CC1=CC(c2cccc(F)c2)C2=C(CCCC2=O)N1 (centres undefined) | 216 to 218
CC(=O)OC1CCC2(C)C(=CCC3C4=CCC(C(C)=O)C4(C)CCC32)C1 (centres undefined) | 205 to 208
CCCCC(CC)NC1=NS(=O)(=O)c2sc(Cl)cc2N1 (centres undefined) | 165 to 168
CC(C)Cc1cc2cc(O)c(Cl)c(Cl)c2s1 | 58 to 59
COc1ccc2c(C3=CCNCC3)c[nH]c2c1 | 193 to 194
OC(CBr)C(O)C(O)C(O)CBr (centres undefined) | 183 to 185
Nc1nc(N2CCOCC2)nc2ccccc12 | 216 to 219
CCCCCCCCCCCCCc1nnc(N)o1 | 147 to 150
Nc1sccc1C(=O)c1ccccc1 | 150 to 152
COc1cc(COc2nn(-c3ccccc3)cc2/C=C/C2=NCCO2)ccc1OCc1nc(-c2ccco2)oc1C | 162 to 163
CCOC(=O)c1nc2n(n1)-c1ccc(Cl)cc1C(c1ccccc1)=NC2 | 137 to 138
CC1CCc2c(N3CCNCC3)ccc3c2N1C=C(C(=O)O)C3 (centres undefined) | 264 to 265
NC(=O)c1cc2c(-c3cccc(NC(=O)c4cccc(C(F)(F)F)c4)c3)ncnc2s1 | 275 to 278
Clc1ccc(CO[C@H]2CO[C@@H](c3ccccc3)OC2)cc1Cl | 77 to 78
COCc1n[nH]c2c1c(=O)n(-c1ccccc1)c1ncccc21 | 263 to 265
Cc1nnc2c(NC(N)=O)cc3cc(-c4ccc(CN5CCCCC5)cc4)ccc3n12 | > 260

Compound | melting point [°C]
O=Cc1cc(F)cc(Br)c1F | 36 to 38
CNC(=O)c1cnn(-c2cccc(Cl)c2)c1Cl | 163 to 165
CSc1nn(-c2c(Cl)cc(Cl)cc2Cl)c(N(C)C)c1CO | 108 to 110
CSc1sc(C(=O)N2CCOCC2)c2c1-c1oncc1C(C)(C)C2 | 175 to 177
O=C(Nc1ccccc1Cl)c1ccccc1SSc1ccccc1C(=O)Nc1ccccc1Cl | 247 to 249
CON=C(C1=NCCO1)c1ccccc1OCc1ccc(Cl)cc1 | 97 to 100
O=c1[nH]c(N[N+](=O)[O-])ncc1Cc1cccc2ccccc12 | 226 to 227
COc1ccc(C(Cn2cc[nH]c2=O)=NO)cc1OC1CCCC1 | 191
CN1c2cscc2C(=O)N(CCN2CCCC2)c2ccccc21 | 139 to 141
CCOC(=O)c1nnn(-c2ccccc2)c1Cl | 80 to 81
Cc1ccc(-c2cnc(N)c(C(=O)Nc3cccnc3)n2)cc1C | 178 to 182
CC(C)n1c(SC(F)(F)C(F)F)nc(-c2ccc(F)cc2)c1-c1ccc(F)cc1 | 94 to 103
O=C1CCCc2cc(O)ccc21 | 153 to 155
CCOC(=O)Cn1cc(C#N)nn1 | 47 to 48
Cc1cc(I)cc2[nH]c(C(=O)O)cc(=O)c12 | 294
Cn1c(CC#N)ccc1C(=O)Cl | 78 to 80
CCCCCCC1CC(Cn2cncn2)(c2ccccc2)N(C)O1 (centres undefined) | 93 to 99

Further lines, results first:

melting point [°C] | Compound
77 to 79 | Cc1ccccc1Nc1nc(N(C)c2ccccc2)c2cccc(OCCCN(C)C)c2n1
113 to 115 | CC(C)c1cccc(C(C)C)c1NC(=O)CN1CCN(CCCSc2nc3ccccc3s2)CC1
156 to 159 | CCC1(CC)C(=O)Nc2ccc(-c3cccc(Cl)c3)cc21
157 to 158 | CCC(C(C)=CC(CNC(=O)c1c[nH]cn1)=NO)[N+](=O)[O-] (centres undefined)
205 to 206 | CC(=O)N1CCN(c2ccc(Nc3nccc(-c4sc(N(C)c5cccnc5)nc4C)n3)cc2)CC1
88 to 90 | CCCc1c(OCCOc2ccc(S(=O)(=O)c3nnn[nH]3)cc2)ccc(C(C)=O)c1O
180 to 181 | Nc1ccc(C(=O)NO)c(O)c1
> 300 | Nc1ncc(-c2nc(N3CCOCC3)c3sc(NS(=O)(=O)c4cccc(C=CC(=O)NO)c4)cc3n2)cn1
149 to 151 | COC(=O)CNC(=O)c1[nH]c(C)c(-c2nc3ccc(C(=O)c4ccccc4)cc3[nH]2)c1C
128 | Cc1cc(C)cc(NCc2ccc3nc(NCC(O)CO)n(Cc4nc(C)ccc4O)c3c2)c1 (centres undefined)
139 to 141 | O=C(O)CCC1CNC(=O)CC1c1ccc(F)cc1 (centres undefined)
128 | Cc1ccc(S(=O)(=O)Nc2ccc(N)c(C3CCCC3)c2)cc1
155 to 156 | CC(C)(C)OC(=O)N1CC(=O)Nc2cccc(F)c21
65 to 68 | CC#CCOc1ccc(S(=O)(=O)N(C)C(C(=O)NO)C(C)(C)SCC(C)N(CC)CC)cc1 (centres undefined)
189 to 191 | CCCOc1ccnc2[nH]ccc12
179 to 180 | CC(C)CCOc1cccc2oc(C(=O)O)cc(=O)c12
136 to 138 | Cc1c(C(F)F)cc(-c2ccc(S(C)(=O)=O)cc2)n1-c1ccc(F)cc1
179 to 180 | CC(C)S(=O)(=O)c1cc(OCc2ccccc2)c2[nH]nc(N)c2c1
264 to 265 | COc1cc(OC)c(-c2ccc(N(C)CCN(C)c3ccc(-c4c(OC)cc(OC)cc4OC)nc3)cn2)c(OC)c1
122 to 125 | Cn1nc(CCc2cc(=O)[nH]c(N)n2)c2ccc(C(=O)NC[C@H](NS(=O)(=O)c3cccc4cnccc34)C(=O)O)cc21

melting point [°C] | Compound
158 to 159 | CCOC(=O)c1cc2c(C)ccc(N(C)S(=O)(=O)c3cccnc3Cl)c2[nH]1
128 to 129 | O=C(O)C1=Cc2cc(OC(F)(F)F)ccc2NC1C(F)(F)F (centres undefined)
123 to 124 | C[Si](C)(C)c1ccc(N)cc1
154 to 156 | CCC1=C(c2ccccc2)C(c2ccccc2)=C(CC)C1=C(C#N)C#N
215 to 217 | COc1c(/C=C/C(=O)Nc2ccccc2)c(=O)c2ccc(Cl)cc2[nH]c1=O
50 to 53 | CCCNC(=O)C1(CCCCSc2ccccc2)c2ccccc2-c2ccccc21
265 | C[C@@H](NC(=O)OC(C)(C)C)c1nc2c(C(F)(F)F)cccc2c(O)c1C(=O)Nc1nccs1
208 to 210 | O=C(Cc1ccc(SC(F)(F)F)cc1)NCc1ccc2c(c1)CN(C1CCC(=O)NC1=O)C2=O (centres undefined)
63 to 66 | COc1ccc(C(=O)Nc2ccc(-c3ccc(C)cc3Cl)cc2)cc1CCCN(C)C
109 to 112 | COCC(=O)N[C@@H]1CCOc2ccccc21
130 | COc1ccc(CN(C)CCCOc2ccc(NC(=O)c3cccc4c(=O)c5cccc(F)c5[nH]c34)c(C)c2)cc1OC
41 to 43 | O=C(CCc1ccccc1)c1ccc(OCCO)cc1
107 to 108 | CCOC(=O)c1c(CN(CC)CC)nc2ccc(Cl)cc2c1-c1ccccc1
110 to 115 | CCOC(=O)C1=C(C(F)(F)F)Nc2n[nH]cc2C1c1ccccc1 (centres undefined)
121 to 122 | O=C1NC(=O)C(Cc2ccc(OCCc3cccc4ccccc34)cc2)S1 (centres undefined)
20 | CC(C)(C)C(=O)Cn1ccnc1
101 to 102 | COc1ccc(CC(O)c2cc(OC)cc(OC)c2)cc1 (centres undefined)
104 to 105 | COc1cccc(Cn2cc3c(-c4cccc(C(=O)NCCO)c4)cccc3n2)n1
173 to 174 | NS(=O)(=O)c1ccc(C2=C(c3ccc(F)cc3)CCC2)cc1
